Measured values as given in patent publication US9102752B2, “Peptide vaccine for prevention and immunotherapy of dementia of the Alzheimer's type” (United Biomedical, Inc., priority 2013, dated 2015).

Tests used:
[1] = test system: anti-Aβ antibodies in macaque antisera; test: Specificity analysis (10-mer peptide ELISA) of antisera from Cynomolgus macaques; assay type: binding
[2] = test system: anti-Aβ antibodies in sera of vaccinated patients; test: Epitope mapping, competitive binding inhibition EIA with patient sera (10-mer peptides, IC50); design: species or system human; Epitope mapping, fine specificity analysis, serum of subject P210: unit not given here; settings: for Epitope mapping, fine specificity analysis, serum of subject P101: serum 16 wpi of vaccinated patient P101; for Epitope mapping, fine specificity analysis, serum of subject P102: serum 16 wpi of vaccinated patient P102; for Epitope mapping, fine specificity analysis, serum of subject P103: serum 16 wpi of vaccinated patient P103; for Epitope mapping, fine specificity analysis, serum of subject P104: serum 16 wpi of vaccinated patient P104; for Epitope mapping, fine specificity analysis, serum of subject P105: serum 16 wpi of vaccinated patient P105; for Epitope mapping, fine specificity analysis, serum of subject P106: serum 16 wpi of vaccinated patient P106; for Epitope mapping, fine specificity analysis, serum of subject P107: serum 16 wpi of vaccinated patient P107; for Epitope mapping, fine specificity analysis, serum of subject P108: serum 16 wpi of vaccinated patient P108; for Epitope mapping, fine specificity analysis, serum of subject P109: serum 16 wpi of vaccinated patient P109; for Epitope mapping, fine specificity analysis, serum of subject P201: serum 16 wpi of vaccinated patient P201; for Epitope mapping, fine specificity analysis, serum of subject P202: serum 16 wpi of vaccinated patient P202; for Epitope mapping, fine specificity analysis, serum of subject P203: serum 16 wpi of vaccinated patient P203; for Epitope mapping, fine specificity analysis, serum of subject P204: serum 16 wpi of vaccinated patient P204; for Epitope mapping, fine specificity analysis, serum of subject P205: serum 16 wpi of vaccinated patient P205; for Epitope mapping, fine specificity analysis, serum of subject P206: serum 16 wpi of vaccinated patient P206; for Epitope mapping, fine specificity analysis, serum of subject P207: serum 16 wpi of vaccinated patient P207; for Epitope mapping, fine specificity analysis, serum of subject P208: serum 16 wpi of vaccinated patient P208; for Epitope mapping, fine specificity analysis, serum of subject P209: serum 16 wpi of vaccinated patient P209; for Epitope mapping, fine specificity analysis, serum of subject P210: serum 16 wpi of vaccinated patient P210
[3] = antisera of macaques given UBI AD Vaccine 150 μg/dose, 9 WPI
[4] = antisera of macaques given UBI AD Vaccine 150 μg/dose, 15 WPI
[5] = antisera of macaques given UBI AD Vaccine 750 μg/dose, 9 WPI
[6] = antisera of macaques given UBI AD Vaccine 750 μg/dose, 15 WPI

18 (EFRHDSGYEV; PEPTIDE (1)..(10) Abeta 3-12 or APP 770(E674-V683); listed as Homo sapiens) [compound 18]
Reactivity of antisera with peptide (specificity analysis ELISA) [1, 3]: 0.047
Reactivity of antisera with peptide (specificity analysis ELISA) [1, 4]: 0.060
Reactivity of antisera with peptide (specificity analysis ELISA) [1, 5]: 0.042
Reactivity of antisera with peptide (specificity analysis ELISA) [1, 6]: 0.052
Epitope mapping, fine specificity analysis, serum of subject P101 [2]: 0
Epitope mapping, fine specificity analysis, serum of subject P102 [2]: 0
Epitope mapping, fine specificity analysis, serum of subject P103 [2]: 0
Epitope mapping, fine specificity analysis, serum of subject P104 [2]: 0
Epitope mapping, fine specificity analysis, serum of subject P105 [2]: 0
Epitope mapping, fine specificity analysis, serum of subject P106 [2]: 0
Epitope mapping, fine specificity analysis, serum of subject P107 [2]: 0
Epitope mapping, fine specificity analysis, serum of subject P108 [2]: 0
Epitope mapping, fine specificity analysis, serum of subject P109 [2]: 0
Epitope mapping, fine specificity analysis, serum of subject P201 [2]: 0
Epitope mapping, fine specificity analysis, serum of subject P202 [2]: 0
Epitope mapping, fine specificity analysis, serum of subject P203 [2]: 0
Epitope mapping, fine specificity analysis, serum of subject P204 [2]: 0
Epitope mapping, fine specificity analysis, serum of subject P205 [2]: 0
Epitope mapping, fine specificity analysis, serum of subject P206 [2]: 0
Epitope mapping, fine specificity analysis, serum of subject P207 [2]: 0
Epitope mapping, fine specificity analysis, serum of subject P208 [2]: 0
Epitope mapping, fine specificity analysis, serum of subject P209 [2]: 0
Epitope mapping, fine specificity analysis, serum of subject P210 [2]: 0

19 (FRHDSGYEVH; PEPTIDE (1)..(10) Abeta 4-13 or APP 770(F675-H684); listed as Homo sapiens) [compound 19]
Reactivity of antisera with peptide (specificity analysis ELISA) [1, 3]: 0.085
Reactivity of antisera with peptide (specificity analysis ELISA) [1, 4]: 0.076
Reactivity of antisera with peptide (specificity analysis ELISA) [1, 5]: 0.066
Reactivity of antisera with peptide (specificity analysis ELISA) [1, 6]: 0.096
Epitope mapping, fine specificity analysis, serum of subject P101 [2]: 0
Epitope mapping, fine specificity analysis, serum of subject P102 [2]: 0
Epitope mapping, fine specificity analysis, serum of subject P103 [2]: 0
Epitope mapping, fine specificity analysis, serum of subject P104 [2]: 0
Epitope mapping, fine specificity analysis, serum of subject P105 [2]: 0
Epitope mapping, fine specificity analysis, serum of subject P106 [2]: 0
Epitope mapping, fine specificity analysis, serum of subject P107 [2]: 0
Epitope mapping, fine specificity analysis, serum of subject P108 [2]: 0
Epitope mapping, fine specificity analysis, serum of subject P109 [2]: 0
Epitope mapping, fine specificity analysis, serum of subject P201 [2]: 0
Epitope mapping, fine specificity analysis, serum of subject P202 [2]: 0
Epitope mapping, fine specificity analysis, serum of subject P203 [2]: 0
Epitope mapping, fine specificity analysis, serum of subject P204 [2]: 0
Epitope mapping, fine specificity analysis, serum of subject P205 [2]: 0
Epitope mapping, fine specificity analysis, serum of subject P206 [2]: 0
Epitope mapping, fine specificity analysis, serum of subject P207 [2]: 0
Epitope mapping, fine specificity analysis, serum of subject P208 [2]: 0
Epitope mapping, fine specificity analysis, serum of subject P209 [2]: 0
Epitope mapping, fine specificity analysis, serum of subject P210 [2]: 0

20 (RHDSGYEVHH; PEPTIDE (1)..(10) Abeta 5-14 or APP 770(R676-H685); listed as Homo sapiens) [compound 20]
Reactivity of antisera with peptide (specificity analysis ELISA) [1, 3]: 0.296
Reactivity of antisera with peptide (specificity analysis ELISA) [1, 4]: 0.400
Reactivity of antisera with peptide (specificity analysis ELISA) [1, 5]: 0.453
Reactivity of antisera with peptide (specificity analysis ELISA) [1, 6]: 0.461
Epitope mapping, fine specificity analysis, serum of subject P101 [2]: 0
Epitope mapping, fine specificity analysis, serum of subject P102 [2]: 0
Epitope mapping, fine specificity analysis, serum of subject P103 [2]: 0
Epitope mapping, fine specificity analysis, serum of subject P104 [2]: 0
Epitope mapping, fine specificity analysis, serum of subject P105 [2]: 0
Epitope mapping, fine specificity analysis, serum of subject P106 [2]: 0
Epitope mapping, fine specificity analysis, serum of subject P107 [2]: 0
Epitope mapping, fine specificity analysis, serum of subject P108 [2]: 0
Epitope mapping, fine specificity analysis, serum of subject P109 [2]: 0
Epitope mapping, fine specificity analysis, serum of subject P201 [2]: 0
Epitope mapping, fine specificity analysis, serum of subject P202 [2]: 0
Epitope mapping, fine specificity analysis, serum of subject P203 [2]: 0
Epitope mapping, fine specificity analysis, serum of subject P204 [2]: 0
Epitope mapping, fine specificity analysis, serum of subject P205 [2]: 0
Epitope mapping, fine specificity analysis, serum of subject P206 [2]: 0
Epitope mapping, fine specificity analysis, serum of subject P207 [2]: 0
Epitope mapping, fine specificity analysis, serum of subject P208 [2]: 0
Epitope mapping, fine specificity analysis, serum of subject P209 [2]: 0
Epitope mapping, fine specificity analysis, serum of subject P210 [2]: 0
